Results on two sequences are retold here after patent publication US11155580B2, “Modified proteins and methods of use thereof” (YALE UNIVERSITY, priority 2013, dated 2021).

Assay [1] has as its system HeLa cervical cancer cells. The assay is described as follows: Internal peptide concentration after co-administration with ZF 5.3. It is filed as cell-based. The protocol: HeLa cervical cancer cells were incubated in the presence of either 500 nM ZF 4.3-Rhodamine or 500 nM ZF 4.3-Rhodamine with 1 μM ZF 5.3 for 30 minutes. After incubation, external peptide was removed and internal peptide concentration was measured using a microscope with advanced correlation and detection hardware. In the absence of ZF 5.3, only a small amount of ZF 4.3 enters the cell interior, corresponding to ˜8% of the ZF 4.3 concentration added (FIG. 19). In the presence of ZF 5.3, the amount of ZF 4.3 that enters the cell interior quadrupled, raising to ˜35% of the concentration added (FIG. 19).

The nature of assay [2]: Trafficking of a biologically active peptide (NBD) into the cytosol. It is filed as cell-based. The following applies: 500 nM NBD fusions. The protocol: Cells were incubated in the presence of either 500 nM ZF 5.3-NBD or Antp-NBD or Arg8-NBD (FIG. 20). After incubation, internal peptide concentration was measured.

Consider RRRRRRRR [Arg8], for which, in assay [1], the “intracellular concentration on co-incubation with ZF 5.3” value is listed as “did not significantly increase”.

Turning to WYSCNVCGKAFVLSRHLNRHLRVHRRAT [ZF5.3], the “trafficking a biologically active peptide into the cytosol” value in assay [2] was “superior to both Antp and Arg8”.
